Results reported in patent US6451336B2, “Method for increasing brown fat, comprising administering conjugated linoleic acid as active ingredient” (Rinoru Oil Mills Co., Ltd., priority 1999, dated 2002).

Experiments:
[1] = tested on: carnitine palmitoyltransferase (CPT); assay: Carnitine palmitoyltransferase (CPT) activity in brown adipose tissues of rats fed CLA; type: in vivo, Sprague-Dawley male rats; conditions: 1.0% CLA in diet, 4 weeks
From the text: (§1) Sprague-Dawley male rats of four weeks of age were pre-bred, and then divided into two groups (each group consisting of 8 rats), a 1.0% linoleic acid group (a control group) and a 1.0% CLA group. The experimental diet shown in Table 1 and water were then freely fed to these two groups of rats. […] Four weeks after the initiation of feeding, the 8 rats constituting each group were sacrificed, and the organs were taken out.
Further, the activity of carnitine palmitoyltransferase (CPT) as a rate-determining enzyme in β-oxidation of fatty acids was measured in brown adipose tissues.

[2] = Feeding of 1.0% CLA diet to rats for four weeks: growth and weight of organs; type: in vivo, Sprague-Dawley male rats; conditions: 1.0% CLA in diet, 4 weeks
From the text: as §1

- Food intake, in words, compared with 1.0% linoleic acid control group [2]: without affecting
- Weight of organs: Brain [2]: 0.38 g/100 g body weight
- Weight of organs: Heart [2]: 0.36 g/100 g body weight
- Weight of organs: Kidney [2]: 0.78 g/100 g body weight
- Weight of organs: Liver [2]: 4.40 g/100 g body weight
- Weight of organs: Lung [2]: 0.40 g/100 g body weight
- Weight of organs: Spleen [2]: 0.22 g/100 g body weight
- Weight of tissues of liver, kidney, heart, lungs, spleen and brain, in words, compared with control group [2]: no difference
- Food intake ([2]; free feeding): 21.0 g/day
Substance: conjugated linoleic acid [CLA]
- Activity of carnitine palmitoyltransferase (CPT) in brown adipose tissues, in words, compared with control group [1]: higher
- Weight gain, in words, compared with 1.0% linoleic acid control group [2]: without affecting
- Weight of adipose tissues around the kidney (white adipose tissues), in words, compared with control group [2]: significantly decreased
- Weight of brown adipose tissues in the back, in words, compared with control group [2]: significantly increased
- Weight of organs: Brown adipose tissue [2]: 0.21 g/100 g body weight
- Weight of organs: Epididymal adipose tissue [2]: 1.17 g/100 g body weight
- Weight gain ([2]; free feeding): 227 g/4 weeks
- Weight of organs: Peri-renal adipose tissue ([2]; white adipose tissue): 1.16 g/100 g body weight
